Structures can show the parent of a compound that is named as a salt.

As usually defined, the IC50 is the concentration that inhibits the measured activity by half.

Assay [1] deals with T1, DYRK1A (Homo sapiens, UniProt Q13627).
T1 construct: purchased Carna Bioscence (Carna Biosciences) 04-130
As to the kind of experiment: DYRK1A in vitro kinase assay (ADP-Glo). Type of assay: biochemical. The note with it: ATP 70 μM (Km), substrate 3 μM, enzyme 2 nM or 0.7 nM, 30 min, rt. The protocol:
The compounds of the present invention were tested for their inhibitory activity against DYRK1A and DYRK1B kinases once or several times. When tested more than once, the data are reported herein as average value, wherein the average value, also referred to as the mean value, represents the sum of obtained values divided by the number of times tested.
DYRK-inhibitory activity of the compounds of the present invention was tested using the ADP-Glo™ assay as described in the following paragraphs. The procedure for determining the IC50 values with the ADP-Glo™ assay in in vitro kinase assays consists of two parts:
1. Kinase reaction performed under optimized conditions;
2. Detection of ADP as a product of the reaction using ADP-Glo™ system (Promega).
The tested compounds indicated in Table 5 below were dissolved in DMSO, then transferred to the V-bottom PP plate to perform nine serial dilutions (in order to obtain dose-response curves) in 25% DMSO, as indicated in Table 5 below.
The optimized conditions for performing DYRK1A in vitro kinase assay were as follows:
For compound testing, the following protocol was used: two mixes were prepared on ice, Mix 1 containing substrate, ATP and reaction buffer and Mix 2 containing reaction buffer and the kinase. 15 μL per well of Mix 1 was transferred to wells of a 96-well plate. Next, 2.5 μL of the pre-diluted compound to be tested was added to Mix 1, followed by the addition of 12.5 μL of Mix 2. Total reaction volume was 30 μL per well. The experiment was performed in duplicate for each data point being examined. Dose response curve for the positive control was carried out on each assay plate by adding the reference inhibitory compound staurosporine. For each test, three controls were also included: (i) 30 μL of the reaction mixture containing: reaction buffer, ATP, kinase, DMSO without substrate (quasi-positive control); (ii) 30 μL of the reaction mixture containing reaction buffer, substrate, ATP, DMSO without kinase (background control); (iii) 30 μL of the reaction mixture containing reaction buffer, substrate, kinase, ATP, DMSO (vehicle control). Final concentration of DMSO in the reaction was 2%. To detect the ADP amount produced during the kinase reaction, the commercially available kit ADP-Glo™ Kinase Assay (Promega, cat. No # V9103) was used. The protocol used for the detection was based on the Technical Bulletin of the ADP-Glo™ Kinase Assay (Promega) and was adapted to 96-well plate containing 30 μL reaction mixture as explained below.
30 μL of ADP-Glo™ Reagent was added to each well of a 96 well plate containing 30 μL of reaction mixture to terminate the kinase reaction and deplete the remaining ATP. The plate was incubated for 60 minutes on a shaker at rt. 60 μL of Kinase Detection Solution was then added to each well of 96-well plate containing 60 μL of the solution to convert ADP to ATP and to allow the newly synthesized ATP to be measured using a luciferase/luciferin reaction (ratio of kinase reaction volume to ADP Glo™ Reagent volume to Kinase Detection Solution volume was maintained at 1:1:2). The plate was incubated for 40 minutes on a shaker at rt, protected from light. Luminescence was measured in the plate reader, wherein the luminescent signal is proportional to the ADP concentration produced and thus correlates with kinase activity.
After data normalization to controls (complete reaction mix and no-substrate control) and transforming X values (test compound concentrations) using: X=log(X), IC50 values were determined, using the GraphPad Prism 6.0 [log(agonist) vs. normalized response—Variable slope].

The target in assay [2] is T2, DYRK1B (Homo sapiens, UniProt Q9Y463).
T2 construct: purchased Carna Bioscence (Carna Biosciences) 04-131
As to the kind of experiment: DYRK1B in vitro kinase assay (ADP-Glo). Type of assay: biochemical. The note with it: ADP-Glo assay, ATP 15 μM (Km), substrate 7 μM, enzyme 1 nM or 0.3 nM, 1 h, rt; read-out: DYRK1B IC50. As for the experimental part:
The compounds of the present invention were tested for their inhibitory activity against DYRK1A and DYRK1B kinases once or several times. When tested more than once, the data are reported herein as average value, wherein the average value, also referred to as the mean value, represents the sum of obtained values divided by the number of times tested. DYRK-inhibitory activity of the compounds of the present invention was tested using the ADP-Glo™ assay as described in the following paragraphs. The procedure for determining the IC50 values with the ADP-Glo™ assay in in vitro kinase assays consists of two parts: […] Kinase reaction performed under optimized conditions; 2. Detection of ADP as a product of the reaction using ADP-Glo™ system (Promega). The tested compounds indicated in Table 5 below were dissolved in DMSO, then transferred to the V-bottom PP plate to perform nine serial dilutions (in order to obtain dose-response curves) in 25% DMSO, as indicated in Table 5 below. The optimized conditions for performing DYRK1B in vitro kinase assay were as follows: [table] For compound testing, the following protocol was used: two mixes were prepared on ice, Mix 1 containing substrate, ATP and reaction buffer and Mix 2 containing reaction buffer and the kinase. 15 μL per well of Mix 1 was transferred to wells of a 96-well plate. […] Total reaction volume was 30 μL per well. The experiment was performed in duplicate for each data point being examined. Dose response curve for the positive control was carried out on each assay plate by adding the reference inhibitory compound staurosporine. For each test, three controls were also included: (i) 30 μL of the reaction mixture containing: reaction buffer, ATP, kinase, DMSO without substrate (quasi-positive control); (ii) 30 μL of the reaction mixture containing reaction buffer, substrate, ATP, DMSO without kinase (background control); (iii) 30 μL of the reaction mixture containing reaction buffer, substrate, kinase, ATP, DMSO (vehicle control). Final concentration of DMSO in the reaction was 2%. To detect the ADP amount produced during the kinase reaction, the commercially available kit ADP-Glo™ Kinase Assay (Promega, cat. No # V9103) was used. The protocol used for the detection was based on the Technical Bulletin of the ADP-Glo™ Kinase Assay (Promega) and was adapted to 96-well plate containing 30 μL reaction mixture as explained below. 30 μL of ADP-Glo™ Reagent was added to each well of a 96 well plate containing 30 μL of reaction mixture to terminate the kinase reaction and deplete the remaining ATP. The plate was incubated for 60 minutes on a shaker at rt. 60 μL of Kinase Detection Solution was then added to each well of 96-well plate containing 60 μL of the solution to convert ADP to ATP and to allow the newly synthesized ATP to be measured using a luciferase/luciferin reaction (ratio of kinase reaction volume to ADP Glo™ Reagent volume to Kinase Detection Solution volume was maintained at 1:1:2). The plate was incubated for 40 minutes on a shaker at rt, protected from light. Luminescence was measured in the plate reader, wherein the luminescent signal is proportional to the ADP concentration produced and thus correlates with kinase activity. After data normalization to controls (complete reaction mix and no-substrate control) and transforming X values (test compound concentrations) using: X=log(X), IC50 values were determined, using the GraphPad Prism 6.0 [log(agonist) vs. normalized response—Variable slope].
On the technique in general: In ADP-Glo the light output rises with the ADP produced.

T2 sequence (Q9Y463 whole entry): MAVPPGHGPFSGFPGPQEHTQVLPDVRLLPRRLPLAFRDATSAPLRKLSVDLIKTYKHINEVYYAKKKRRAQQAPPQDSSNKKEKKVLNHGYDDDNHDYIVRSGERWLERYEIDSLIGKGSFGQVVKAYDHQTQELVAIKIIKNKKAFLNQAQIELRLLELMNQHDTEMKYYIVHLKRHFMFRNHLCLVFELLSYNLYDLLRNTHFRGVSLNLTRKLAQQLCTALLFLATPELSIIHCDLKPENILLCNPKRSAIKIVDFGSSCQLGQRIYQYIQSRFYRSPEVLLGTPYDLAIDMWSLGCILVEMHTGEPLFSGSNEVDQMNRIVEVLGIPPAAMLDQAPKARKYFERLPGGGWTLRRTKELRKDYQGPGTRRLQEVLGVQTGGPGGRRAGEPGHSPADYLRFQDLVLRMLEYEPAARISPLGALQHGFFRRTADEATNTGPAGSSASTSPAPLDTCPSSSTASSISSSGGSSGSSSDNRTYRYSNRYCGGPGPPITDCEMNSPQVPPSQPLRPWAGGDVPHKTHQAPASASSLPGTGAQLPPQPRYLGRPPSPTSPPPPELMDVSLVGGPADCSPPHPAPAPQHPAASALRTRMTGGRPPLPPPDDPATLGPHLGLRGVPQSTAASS

As to `C=CCN(C)C(=O)c1cnc2[nH]cc(-c3ccc4nccc(Cl)c4c3)c2c1` [Example 20, 3-(4-Chloroquinolin-6-yl)-N-methyl-N-(prop-2-en-1-yl)-1H-pyrrolo[2,3-b]pyridine-5-carboxamide], the 50% inhibitory concentration (IC50) in assay [1] is 10 to 100 nM; in assay [2], < 10 nM.

Regarding `C=CCCCc1ccnc2ccc(-c3c[nH]c4ncc(CN(C)CC=C)cc34)cc12` [Example 21, Methyl({3-[4-(pent-4-en-1-yl)quinolin-6-yl]-1H-pyrrolo[2,3-b]pyridin-5-yl}methyl)(prop-2-en-1-yl)amine], the IC50 in assay [1] is 10 to 100 nM; in assay [2] it was < 10 nM.

For `CNC(=O)c1cnc2[nH]cc(-c3ccc4nccc(-c5cccnc5)c4c3)c2c1` [Example 22, N-Methyl-3-[4-(pyridin-3-yl)quinolin-6-yl]-1H-pyrrolo[2,3-b]pyridine-5-carboxamide], the 50% inhibitory concentration (IC50) in assay [1] and in assay [2] was < 10 nM in each case.

As to `CNC(=O)c1cnc2[nH]cc(-c3ccc4nccc(N5CCOCC5)c4c3)c2c1` [Example 23, N-Methyl-3-[4-(morpholin-4-yl)quinolin-6-yl]-1H-pyrrolo[2,3-b]pyridine-5-carboxamide], the IC50 in assay [1] and in assay [2] was < 10 nM each time.

With `CNC(=O)c1cnc2[nH]cc(-c3ccc4nccc(Cl)c4c3)c2c1` [Example 24, 3-(4-Chloroquinolin-6-yl)-N-methyl-1H-pyrrolo[2,3-b]pyridine-5-carboxamide], the half-maximal inhibitory concentration (IC50) in assay [1] and in assay [2] was < 10 nM in each case.

Turning to `CNC(=O)c1cnc2[nH]cc(-c3ccc4ncccc4c3)c2c1` [Example 25, N-Methyl-3-(quinolin-6-yl)-1H-pyrrolo[2,3-b]pyridine-5-carboxamide], the half-inhibitory concentration (IC50) in assay [1] and in assay [2] was < 10 nM in each case.

Take `C=CCN(C)C(=O)c1cnc2[nH]cc(-c3cc(OC)c4ncccc4c3)c2c1` [Example 26, 3-(8-Methoxyquinolin-6-yl)-N-methyl-N-(prop-2-en-1-yl)-1H-pyrrolo[2,3-b]pyridine-5-carboxamide]: the IC50 in assay [1] and in assay [2] was > 100 nM each time.

Take `C=CCN(C)C(=O)c1cnc2[nH]cc(-c3cc(F)c4ncccc4c3)c2c1` [Example 27, 3-(8-Fluoroquinolin-6-yl)-N-methyl-N-(prop-2-en-1-yl)-1H-pyrrolo[2,3-b]pyridine-5-carboxamide]: the IC50 in assay [1] and in assay [2] was < 10 nM in each case.

For `C=CCN(C)C(=O)c1cnc2[nH]cc(-c3cc(Cl)c4ncccc4c3)c2c1` [Example 28, 3-(8-Chloroquinolin-6-yl)-N-methyl-N-(prop-2-en-1-yl)-1H-pyrrolo[2,3-b]pyridine-5-carboxamide], the half-inhibitory concentration (IC50) was 10 to 100 nM in assay [1] and < 10 nM in assay [2].

For `CNC(=O)c1cnc2[nH]cc(-c3cc(F)c4ncccc4c3)c2c1` [Example 30, 3-(8-Fluoroquinolin-6-yl)-N-methyl-1H-pyrrolo[2,3-b]pyridine-5-carboxamide], the IC50 in assay [1] and in assay [2] was < 10 nM in each case.

For `O=C(NCc1ccccc1)c1cnc2[nH]cc(-c3cc(F)c4ncccc4c3)c2c1` [Example 31, N-Benzyl-3-(8-fluoroquinolin-6-yl)-1H-pyrrolo[2,3-b]pyridine-5-carboxamide], the IC50 in assay [1] and in assay [2] was < 10 nM throughout.

`O=C(NCc1ccccc1)c1cnc2[nH]cc(-c3cc(Cl)c4ncccc4c3)c2c1` [Example 32, N-Benzyl-3-(8-chloroquinolin-6-yl)-1H-pyrrolo[2,3-b]pyridine-5-carboxamide]: the figures for the 50% inhibitory concentration (IC50) in assay [1] and in assay [2] were 10 to 100 nM and < 10 nM, respectively.

In the case of `NC(=O)c1cnc2[nH]cc(-c3cc(F)c4ncccc4c3)c2c1` [Example 33, 3-(8-Fluoroquinolin-6-yl)-1H-pyrrolo[2,3-b]pyridine-5-carboxamide], the IC50 in assay [1] and in assay [2] was < 10 nM each time.

Consider `NCCCNC(=O)c1cnc2[nH]cc(-c3cc(Cl)c4ncccc4c3)c2c1` [Example 34, N-(3-Aminopropyl)-3-(8-chloroquinolin-6-yl)-1H-pyrrolo[2,3-b]pyridine-5-carboxamide hydrochloride], for which the concentration for half-maximal inhibition (IC50) in assay [1] and in assay [2] was < 10 nM throughout.

On to `NCCCNC(=O)c1cnc2[nH]cc(-c3cc(F)c4ncccc4c3)c2c1` [Example 35, N-(3-Aminopropyl)-3-(8-fluoroquinolin-6-yl)-1H-pyrrolo[2,3-b]pyridine-5-carboxamide hydrochloride], for which the IC50 in assay [1] and in assay [2] was < 10 nM in each case.

Turning to `O=C(NCc1ccccc1)c1cnc2[nH]cc(-c3cc(F)c4nccc(-c5cccnc5)c4c3)c2c1` [Example 36, N-Benzyl-3-[8-fluoro-4-(pyridin-3-yl)quinolin-6-yl]-1H-pyrrolo[2,3-b]pyridine-5-carboxamide], the IC50 in assay [1] is 10 to 100 nM; in assay [2], < 10 nM.

Regarding `NCCCNC(=O)c1cnc2[nH]cc(-c3cc(F)c4nccc(-c5cccnc5)c4c3)c2c1` [Example 37, N-(3-Aminopropyl)-3-[8-fluoro-4-(pyridin-3-yl)quinolin-6-yl]-1H-pyrrolo[2,3-b]pyridine-5-carboxamide hydrochloride], the IC50 in assay [1] and in assay [2] was < 10 nM throughout.

As to `C=CCN(C)C(=O)c1cnc2[nH]cc(-c3cc(F)c4nccc(-c5cccnc5)c4c3)c2c1` [Example 38, 3-[8-Fluoro-4-(pyridin-3-yl)quinolin-6-yl]-N-methyl-N-(prop-2-en-1-yl)-1H-pyrrolo[2,3-b]pyridine-5-carboxamide], the concentration for half-maximal inhibition (IC50) was 10 to 100 nM in assay [1] and < 10 nM in assay [2].

Source of the values: patent US10577365B2, “Derivatives of quinoline as inhibitors of DYRK1A and/or DYRK1B kinases” (Felicitex Therapeutics, Inc., priority 2016, dated 2020).
